Test results taken from publication PMC9452538, “The antimicrobial peptide LI14 combats multidrug-resistant bacterial infections” (Communications Biology, 2022).
≈ marks a conversion by molar mass, not a printed value. Like-named read-outs stand apart in the source and are kept apart here. Peptide text beside a SMILES is read from it.

Experiments:
E. faecalis 1F-1 = test: microbe, parasite or virus in culture; assay type: cell-based; conditions: 1F-1
Experimental: (§1) An antimicrobial activity study was conducted on all peptides against a panel of laboratory bacteria, including ATCC source and clinical isolates with resistance determinants. According to CLSI2021 guidelines, we tested the minimum inhibitory concentrations (MICs) of peptides using standard broth micro-dilutions. Briefly, bacteria grown to exponential phase were diluted in 1:1000 to MHB, subsequently, equivalent amounts of bacterial suspension (1.5 × 10^6 CFUs/mL) were mixed with different concentrations of peptides in a sterilized 96-well microtiter plate (Corning).

[1] = tested on: E. faecalis A4 (VRE, VanA); test: microbe, parasite or virus in culture; assay type: cell-based; conditions: A4 (VRE, VanA)
Experimental: as §1

[2] = tested on: S. enteritidis ATCC 13076; test: microbe, parasite or virus in culture; assay type: cell-based; conditions: ATCC 13076
Experimental: as §1

E. coli 1F28 (tet(X4)) = test: microbe, parasite or virus in culture; assay type: cell-based, Escherichia coli; conditions: 1F28 (tet(X4))
Experimental: as §1

E. coli B3-1 (tet(X4)) = test: microbe, parasite or virus in culture; assay type: cell-based, Escherichia coli; conditions: B3-1 (tet(X4))
Experimental: as §1

E. coli C3 (blaNDM-1) = test: microbe, parasite or virus in culture; assay type: cell-based, Escherichia coli; conditions: C3 (blaNDM-1)
Experimental: as §1

E. coli CP131 (mcr-3) = test: microbe, parasite or virus in culture; assay type: cell-based, Escherichia coli; conditions: CP131 (mcr-3)
Experimental: as §1

E. coli G6 (blaNDM-5) = test: microbe, parasite or virus in culture; assay type: cell-based, Escherichia coli; conditions: G6 (blaNDM-5)
Experimental: as §1

E. coli G92 (mcr-1) = test: microbe, parasite or virus in culture; assay type: cell-based, Escherichia coli; conditions: G92 (mcr-1)
Experimental: as §1

MRSA T144 = assay type: cell-based, Staphylococcus aureus; conditions: MRSA T144
Experimental: MRSA T144 and E. coli B2 in the exponential growth phase were incubated with LI14 peptide supplemented with 10 mM Na^+, K^+, Mg^2+, 10% Dulbecco’s modified Eagle medium (DMEM), and 10% fetal bovine serum (FBS) for 16–18 h. The stability of LI14 was evaluated by the change of its antibacterial activity under different conditions.
LI14 were preincubated for 1 h at various temperatures (40–121 °C), pH (2–12), and proteases (pepsin, trypsin, and papain, final concentration 1 mg/mL). […] Following the incubation with the proteases, the leftover protease was precipitated with acetonitrile and removed by centrifugation at 3000 × g, followed by a MIC test.
Supplementary Table 4 Thermal, pH, salts and protease stability of AMPs against
MRSA T144 and E. coli B2 (MIC, μg/mL).
Treatment MRSA T144 E. coli B2

E. coli ATCC 25922 = test: Resistance development study, serial passages; assay type: cell-based, Escherichia coli; conditions: 80 serial passages at sub-inhibitory concentration (0.5-fold MIC)
Experimental: The ability of LI14 peptide to induce resistance was studied as previously described. Resistance to the therapeutically important drugs rifampicin and ciprofloxacin was measured using S. aureus ATCC 29213 and E. coli ATCC 25922 as test strains. The middle and final MICs were monitored after eighty such serial passages exposed to the tested medicines (0.5-fold MIC), and the fold change in MIC increase was recorded.

CC[C@H](C)[C@H](NC(=O)[C@H](CCCNC(=N)N)NC(=O)[C@H](CS)NC(=O)[C@H](CC(C)C)NC(=O)[C@H](CCCCN)NC(=O)[C@H](CCCCN)NC(=O)[C@H](CC(C)C)NC(=O)[C@@H](NC(=O)[C@H](CCCNC(=N)N)NC(=O)[C@H](CS)NC(=O)[C@H](CC(C)C)NC(=O)[C@H](CCCCN)NC(=O)[C@H](CCCCN)NC(=O)[C@@H](N)CC(C)C)[C@@H](C)CC)C(N)=O [LI14] (H-LKKLCRILKKLCRI-NH2)
MIC (E. faecalis 1F-1): 64 µg/mL (≈ 37.1 µM)
MIC [1]: 8 µg/mL (≈ 4.63 µM)
MIC [2]: 8 µg/mL (≈ 4.63 µM)
MIC (E. coli 1F28 (tet(X4))): 8 µg/mL (≈ 4.63 µM)
MIC (E. coli B3-1 (tet(X4))): 8 µg/mL (≈ 4.63 µM)
MIC (E. coli C3 (blaNDM-1)): 4 µg/mL (≈ 2.32 µM)
MIC (E. coli CP131 (mcr-3)): 4 µg/mL (≈ 2.32 µM)
MIC (E. coli G6 (blaNDM-5)): 4 µg/mL (≈ 2.32 µM)
MIC (E. coli G92 (mcr-1)): 8 µg/mL (≈ 4.63 µM)
MIC (MRSA T144; Control): 4 µg/mL (≈ 2.32 µM)
MIC (MRSA T144; peptide preincubated 1 h at 40℃): 4 µg/mL (≈ 2.32 µM)
MIC (MRSA T144; peptide preincubated 1 h at 60℃): 4 µg/mL (≈ 2.32 µM)
MIC (MRSA T144; peptide preincubated 1 h at 80℃): 4 µg/mL (≈ 2.32 µM)
MIC (MRSA T144; peptide preincubated 1 h at pH 8, readjusted to pH 7.2): 4 µg/mL (≈ 2.32 µM)
MIC (MRSA T144; peptide preincubated 1 h at pH 12, readjusted to pH 7.2): 4 µg/mL (≈ 2.32 µM)
MIC (MRSA T144; peptide preincubated 1 h with Pepsin 1 mg/mL): 4 µg/mL (≈ 2.32 µM)
Increase in MIC after serial passages (E. coli ATCC 25922): 8 fold
